Series [1] is described as follows: Vapor-liquid equilibrium still, separation of 1,1,1-trichloroethane from ethanol. The note with it: 1,1,1-trichloroethane from ethanol. Type of series: physicochemical.
Series [2] in a line: Vapor-liquid equilibrium still, separation of 1,1,1-trichloroethane from n-propanol. In kind it is physicochemical.
Series [3] in a line: Vapor-liquid equilibrium still, separation of 1,1,1-trichloroethane from t-butanol. Type of series: physicochemical.
For series [4] the following is noted: minimum boiling azeotrope with 1,1,1-trichloroethane; cited from earlier work.
The nature of series [5]: Vapor-liquid equilibrium still, separation of 1,1,1-trichloroethane from methanol. Type of series: physicochemical.
Series [6] is described as follows: Vapor-liquid equilibrium still, separation of 1,1,1-trichloroethane from 2-butanol. In kind it is physicochemical.
The nature of series [7]: Vapor-liquid equilibrium still, separation of 1,1,1-trichloroethane from isopropanol. Type of series: physicochemical.
[8] abbreviates: 1,1,1-trichloroethane from n-propanol, vapor-liquid equilibrium still.
Where [9] appears, read: 1,1,1-trichloroethane from t-butanol.
Where [10] appears, read: 1,1,1-trichloroethane from methanol, vapor-liquid equilibrium still.
Setting [11] is: 1,1,1-trichloroethane from 2-butanol, vapor-liquid equilibrium still.
Setting [12] is: * Brings out t-Butanol as Overhead.

Results on 29 molecules are retold here after patent publication US5196094A, “Separation of 1,1,1-trichloroethane from the lower alcohols by extractive distillation” (priority 1991, dated 1993).

As for `CCCCO` [1-Butanol], the “Relative Volatility” value in series [1] is 3.5; in series [2] (setting [8]), 3.9; in series [3] (setting [9]), 2.7.
For the molecule `CCC(C)O` (stereo not shown) [2-Butanol], the “Relative Volatility” value in series [1] was determined as 2.0. In series [4], the “1,1,1-trichloroethane content of azeotrope” value (from here on “1,1,1-trichloroethane content”) is listed as 90% and the azeotrope boiling point is 70.5 °C.
Take `CCCCOCCOCCO` [Diethylene glycol butyl ether]: the “Relative Volatility” value in series [5] (setting [10]) was 2.1; in series [2] (setting [8]) it was 2.8; in series [6] it was 2.7; in series [3] (setting [9]) it was 1.5.
Regarding `CCOCCOCCO` [Diethylene glycol ethyl ether], the “Relative Volatility” value in series [5] is 2.9; in series [1], 1.2; in series [6] (setting [11]) it was 2.8; in series [3] (setting [9]), 1.4.
Turning to `CCCCCCOCCOCCO` [Diethylene glycol hexyl ether], the “Relative Volatility” value was found to be 4.2 in series [5] (setting [10]), 2.0 in series [2] (setting [8]), 2.3 in series [6] (setting [11]) and 1.5 in series [3] (setting [9]).
On to `COCCOCCO` [Diethylene glycol methyl ether], for which the “Relative Volatility” value in series [5] (setting [10]) was 3.3; in series [1], 3.3; in series [2], 2.7; in series [6], 3.0; in series [3] (setting [9]), 2.2.
`CN(C)C=O` [Dimethylformamide]: the “Relative Volatility” value came to 2.8 in series [5], 2.8 in series [2], 1.55 in series [7] and 2.8 in series [6].
Turning to `O=C1OCCO1` [Ethylene carbonate], the “Relative Volatility” value is 3.3 in series [5] (setting [10]), 3.2 in series [1], 2.8 in series [6] (setting [11]) and 1.3 in series [3] (setting [9]).
For `CCCCOCCOC(C)=O` [Ethylene glycol butyl ether acetate], the “Relative Volatility” value in series [5] (setting [10]) is on record as 2.1; in series [1] it was 1.2; in series [7] it was 1.3; in series [6], 1.8.
Take `CCCCOCCO` [Ethylene glycol butyl ether]: the “Relative Volatility” value in series [5] (setting [10]) is on record as 3.2; in series [2] (setting [8]), 2.0; in series [6] (setting [11]), 2.8; in series [3] (setting [9]) it was 1.7.
Consider `CC(=O)OCCOC(C)=O` [Ethylene glycol diacetate], for which the results for the “Relative Volatility” value in series [1], in series [2] and in series [3] (setting [9]) were 1.7, 1.7 and 1.3, respectively.
`CCOCCO` [Ethylene glycol ethyl ether]: the “Relative Volatility” value is listed as 2.5 in series [1], 3.6 in series [2], 3.1 in series [6] and 2.2 in series [3] (setting [9]).
For `COCCO` [Ethylene glycol methyl ether], in that order: 1.95, 4.4, 4.5 and 3.1.
In the case of `OCCOc1ccccc1` [Ethylene glycol phenyl ether], the “Relative Volatility” value in series [5] is 3.1; in series [2], 2.5; in series [6] (setting [11]) it was 2.0; in series [3] (setting [9]), 1.3.
As for `CCCCCCO` [Hexyl alcohol], the results for the “Relative Volatility” value in series [2] and in series [3] (setting [12]) were 2.5 and 1.2, respectively.
As to `CC(C)CCO` [Isoamyl alcohol], the “Relative Volatility” value was 2.2 in series [5], 3.6 in series [2], 1.6 in series [6] and 3.0 in series [3] (setting [9]).
Turning to `CC(C)CO` [Isobutanol], the figures for the “Relative Volatility” value in series [1], in series [2] and in series [3] (setting [9]) were 1.35, 2.2 and 1.2, respectively.
Consider `CC1=CC(=O)CC(C)(C)C1` [Isophorone], for which the “Relative Volatility” value is on record as 1.55 in series [1], 2.0 in series [6] (setting [11]) and 1.4 in series [3] (setting [9]).
`COC(=O)c1ccccc1O` [Methyl salicylate]: the “Relative Volatility” value is given as 1.55 in series [1]; 1.3 in series [2]; 1.45 in series [7] (* Brings Isopropanol out as Overhead, vapor-liquid equilibrium still); 1.3 in series [6]; 1.3 in series [3] (setting [12]).
Turning to `CC1COC(=O)O1` (stereo not shown) [Propylene carbonate], the “Relative Volatility” value in series [1] is 2.2; in series [2] (setting [8]), 2.0; in series [6] (setting [11]), 2.4; in series [3] (setting [9]) it was 1.5.
Turning to `CC(C)COCC(C)O` (stereo not shown) [Propylene glycol isobutyl ether], the “Relative Volatility” value was found to be 2.5 in series [5], 2.4 in series [6] (setting [11]) and 1.4 in series [3] (setting [9]).
As to `COCC(C)O` (stereo not shown) [Propylene glycol methyl ether], the “Relative Volatility” value in series [5] (setting [10]) is listed as 3.1; in series [1], 2.0; in series [2] (setting [8]) it was 4.2; in series [7] (1,1,1-trichloroethane from isopropanol, vapor-liquid equilibrium still), 2.3; in series [6] (setting [11]) it was 3.9; in series [3] (setting [9]), 1.7.
Regarding `CC(O)COc1ccccc1` (stereo not shown) [Propylene glycol phenyl ether], the “Relative Volatility” value in series [5] worked out at 3.1; in series [2] (setting [8]) it was 3.4; in series [7] it was 1.6; in series [6] (setting [11]), 2.4.
`O=S1(=O)CCCC1` [Sulfolane]: the “Relative Volatility” value worked out at 2.2 in series [1], 1.4 in series [7], 2.7 in series [6] and 1.4 in series [3] (setting [9]).
`CCO` [ethanol]: in series [4], the “1,1,1-trichloroethane content” value is reported as 75% and the azeotrope boiling point is 63 °C.
`CC(C)O` [isopropanol]: in series [4], the “1,1,1-trichloroethane content” value is 80%.
On to `CO` [methanol], for which, in series [4], the “1,1,1-trichloroethane content” value was 20% and the azeotrope boiling point was 61 °C.
Consider `CCCO` [n-propanol], for which the “1,1,1-trichloroethane content” value in series [4] is on record as 85%.
Regarding `CC(C)(C)O` [t-butanol], in series [4], the “1,1,1-trichloroethane content” value is listed as 80% and the azeotrope boiling point was 66 °C.
